Test system: blood barrier of rabbit brain
Assay: Detection of liposomes in the brain and spinal cord by confocal microscopy after intravenous injection (Example 1)
Type: in vivo, New Zealand White male rabbits
Details: rabbits, 1.5 ml/kg intravenous, one and four hours following administration
Procedure: A particular liposome formulation was tested for crossing the blood barrier of rabbit brain.
The rabbits were perfused with 200-250 ml PBS prior to spinal cord excision (post the border of the medulla oblongata (between C1 to C2)) and brain removal as shown in FIG. 1 (frontal neocortex (frontal part), corpus callosum, hippocampus and mid brain)). The brains and spinal cords were harvested and fixed (3.7% formalin/PBS) for 10 minutes (37% formalin diluted with PBS 1:10, to a final concentration of 3.7%). The fixed brains and spinal cords were embedded in OCT compound, placed into plastic molds and frozen at −70° C. 8-10 μm tissue slices were cut using a cryotome at −20° C. and fixed on slides after which they were rinsed with PBS for 5 minutes. Finally, slides were mounted using mounting solution (80% glycerol/20% PBS) and sealed with nail polish. Slides were analyzed using confocal microscopy.

Compound | detection of fluorescent marker in spinal cord and brain tissue
O=S(=O)(O)c1cc(O)c2ccc3c(S(=O)(=O)O)cc(S(=O)(=O)O)c4ccc1c2c34 [1-Hydroxypyren-3,6,8-Trisulfonic acid] | can be detected
Rhodamin-DSPE | can be detected

From patent publication US10722463B2, “Compositions and methods using same for delivering agents into a target organ protected by a blood barrier” (Zuli Holdings Ltd., priority 2005, dated 2020)
